Assay results taken from PubChem BioAssay AID2060912 (Molecular Pharmacology Branch, DTP, NCI, 2025).

Tested on: HUVEC/MSC spheroids viability
Test: Human HUVEC/MSC cell line growth inhibition [KRAS2];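 for viability, T/C: percent of DMSO vehicle control luminescence so 100% = untreated viability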
Conditions: for IC50: curve of first compound; for viability, T/C: stronger effect = lower value; active = viability on the fitted dose curve at most 10% of control; inactive = the rest
From the text: Multicellular complex tumor spheroid response to RAS pathway inhibitors in combination with a targeted agents in patient-derived cell lines with oncogenic KRAS variants from multiple cancer types
A high-throughput screen of multi-cell type tumor spheroids was designed to identify active combinations of targeted small molecules and KRAS pathway inhibitors. Complex spheroids include a stromal component modeled by human endothelial cells (HUVEC) and fibroblasts modeled by human mesenchymal stem cells (MSCs). The concentration ranges selected for each drug and investigational agent were based upon clinically achievable concentrations if the clinical Cmax of the agent was known. * [This particular assayID is a followup dataset requested by reviewers of the manuscript. It is a test of the HUVEC and MSC without the tumor cells, and was conducted using different drug plates and a different plate layout.]
Compounds. The drugs and investigational agents: BI-3406 (NSC825286), BAY-293 (NSC824723), batoprotafib (TNO155; NSC825523), sotorasib (AMG 510; NSC818433), MRTX1257 (NSC819558), elimusertib (BAY 1895344; NSC800525), molibresib (GSK525762; NSC774829), temuterkib (LY3214996; NSC803410), venetoclax (NSC766270), alisertib (NSC759677), olaparib (NSC753686), talazoparib (NSC767125), erdafitinib (NSC781556), ipatasertib (NSC767898), cabozantinib (NSC761068), nintedanib (NSC756659), abemaciclib (NSC768073), docetaxel (NSC628503), trametinib (NSC758246), and sapanisertib (NSC764658) were obtained from the National Cancer Institute (NCI) Developmental Therapeutics Program Chemical Repository. The FDA-approved anticancer drug set is available from the Developmental Therapeutics Program. […] The stock solutions were prepared in dimethyl sulfoxide (DMSO, Sigma-Aldrich, St. Louis, MO, cat. D2650) at 800-fold the tested concentration and stored at -70 degrees C prior to their use. All drugs and investigational agents were tested over a range starting from a high concentration at or near the clinical Cmax and decreasing in half-log increments. If the clinical Cmax for an agent had not been determined, the highest concentration tested was 10 microM.
Cell Culture. All cells were maintained in an incubator at 37 degrees C and 5% CO2 with 95% humidity. The PDC lines were cultured according to standard operating procedures established by the NCI PDMR (https://pdmr.cancer.gov/sops/default.htm). Briefly, all PDCs were thawed and cultured in Matrigel-coated flasks prepared with a working solution of 1X Ham's F-12 nutrient mix, without supplementation (Invitrogen, Waltham, MA, cat. 11765054), 100 U/mL penicillin-streptomycin (Invitrogen, cat. 15140122), and 2.5% Matrigel (Corning Inc., Corning, NY, cat. 354248) for the first three passages. All PDCs were cultured in complete DMEM/F-12 media containing advanced DMEM/F-12 (Invitrogen, cat. 12634028), 4.9% defined fetal bovine serum, heat inactivated (HyClone Laboratories Inc., Logan, UT, cat. SH30070.03HI), 389 ng/mL hydrocortisone (Sigma-Aldrich, cat. H4001), 9.7 ng/mL human EGF recombinant protein (Invitrogen, cat. PHG0313), 23.4 microg/mL adenine (Sigma-Aldrich, cat. A2786), 97.3 U/mL penicillin-streptomycin (Invitrogen, cat. 15140122), 1.9 mM L-glutamine (Invitrogen, cat. 25030081), and 9.7 microM Y-27632 dihydrochloride (Tocris Bioscience, Bristol, United Kingdom, cat. 1254). The PDCs were cultured in complete DMEM/F12 media without 9.7 microM Y-27632 dihydrochloride for at least two passages prior to the screen. The established cell line HOP-62 was cultured in RPMI 1640 medium, HEPES (Invitrogen, cat. 22400105) with 10% defined fetal bovine serum (HyClone Laboratories Inc., cat. SH30070.03) and 2 mM L-glutamine (Invitrogen, cat. 25030081). The pooled donor HUVEC were cultured in endothelial cell growth medium 2 (PromoCell, Heidelberg, Germany, cat. C-22011) and the hMSC were cultured in mesenchymal stem cell growth medium 2 (PromoCell, cat. C-28009). […]

CC1COCCN1c1cc(-c2ccnn2C)c2ccnc(-c3ccn[nH]3)c2n1 (configuration not stated) + CC1OCC2(CCN(c3cnc(Sc4ccnc(N)c4Cl)c(N)n3)CC2)C1N
inactive: viability, T/C (second compound 0.0316 µM, first compound 0.00949 µM) 97.8% | viability, T/C (second compound 0.0316 µM, first compound 0.03 µM) 99.4% | viability, T/C (second compound 0.0316 µM, first compound 0.0949 µM) 82.6% | viability, T/C (second compound 0.0316 µM, first compound 0.3 µM) 72.4% | viability, T/C (second compound 0.0316 µM, first compound 0.949 µM) 64.5% | viability, T/C (second compound 0.0316 µM, first compound 3 µM) 51.5% | viability, T/C (second compound 0.1 µM, first compound 0.00949 µM) 95.8% | viability, T/C (second compound 0.1 µM, first compound 0.03 µM) 95.7% | viability, T/C (second compound 0.1 µM, first compound 0.0949 µM) 83.4% | viability, T/C (second compound 0.1 µM, first compound 0.3 µM) 80.4% | viability, T/C (second compound 0.1 µM, first compound 0.949 µM) 62.1% | viability, T/C (second compound 0.1 µM, first compound 3 µM) 48.6% | viability, T/C (second compound 0.316 µM, first compound 0.00949 µM) 105% | viability, T/C (second compound 0.316 µM, first compound 0.03 µM) 101% | viability, T/C (second compound 0.316 µM, first compound 0.0949 µM) 78.9% | viability, T/C (second compound 0.316 µM, first compound 0.3 µM) 64.3% | viability, T/C (second compound 0.316 µM, first compound 0.949 µM) 55.3% | viability, T/C (second compound 0.316 µM, first compound 3 µM) 46.4% | viability, T/C (second compound 1 µM, first compound 0.00949 µM) 82.6% | viability, T/C (second compound 1 µM, first compound 0.03 µM) 94.7% | viability, T/C (second compound 1 µM, first compound 0.0949 µM) 78.3% | viability, T/C (second compound 1 µM, first compound 0.3 µM) 74.5% | viability, T/C (second compound 1 µM, first compound 0.949 µM) 61.6% | viability, T/C (second compound 1 µM, first compound 3 µM) 44.4% | viability, T/C (second compound 3.16 µM, first compound 0.00949 µM) 84.7% | viability, T/C (second compound 3.16 µM, first compound 0.03 µM) 90.5% | viability, T/C (second compound 3.16 µM, first compound 0.0949 µM) 69.1% | viability, T/C (second compound 3.16 µM, first compound 0.3 µM) 63.7% | viability, T/C (second compound 3.16 µM, first compound 0.949 µM) 45% | viability, T/C (second compound 3.16 µM, first compound 3 µM) 32.9% | viability, T/C (second compound 10 µM, first compound 0.00949 µM) 56.2% | viability, T/C (second compound 10 µM, first compound 0.03 µM) 65.5% | viability, T/C (second compound 10 µM, first compound 0.0949 µM) 61.7% | viability, T/C (second compound 10 µM, first compound 0.3 µM) 58.2% | viability, T/C (second compound 10 µM, first compound 0.949 µM) 48% | viability, T/C (second compound 10 µM, first compound 3 µM) 24.7%
1900 nM: IC50 (second compound 0.316 µM)
2640 nM: IC50 (second compound 0.1 µM)
679 nM: IC50 (second compound 3.16 µM)
> 3000 nM: IC50 (second compound 0.0316 µM)
760 nM: IC50 (second compound 10 µM)
2050 nM: IC50 (second compound 1 µM)
